Patent EP1100507B1, “USE OF A COMBINATION COMPRISING A PRECURSOR OF URIC ACID AND ANTIOXIDANT FOR THE TREATMENT OF NEURODEGENERATIVE DESEASES” (Sacks, Meir S., priority 1998, dated 2000)

What was measured:
[1] = cited from earlier work; for abilities to increase uric acid levels: nucleotides compared to nucleosides; for uricosuric effect / uric acid levels in the blood: normal, hyperuricemic and gouty humans; for increasing blood uric acid levels: nucleotides compared with DNA and RNA
[2] = Luminol dependent chemiluminescence activated by directly injected peroxynitrite; assay type: biochemical; conditions: for inhibition of peroxynitrite-based luminol light: 1000 fold dilution; for relative antioxidant activity among the catechins tested: peroxynitrite or SIN-1 based light
Protocol: The end product of purine metabolism in humans is uric acid. This substance is an excellent antioxidant that can interact directly with nearby peroxynitrite. Figure 2 is a graph depicting interaction of peroxynitrite and uric acid and the inhibition of peroxynitrite based chemiluminescence. Figure 2 illustrates the oxidative reaction of peroxynitrite an luminol to produce light (chemiluminescence) and the interference with light which is produced by uric acid at a concentration of 10 µM. […] Allantoin is the end product of purine metabolism in animals except for man, great apes and some dalmatian dogs. […] Such an oxidant occurs most likely through peroxynitrite or possibly hypochlorite.
(§1) We studied the effect of Green tea leaf extract on peroxynitrite. This study is based on a simple chemical interaction of peroxynitrite (OONO-) and luminol which produces blue light upon oxidation. […] In addition peroxynitrite itself was used directly with a fast injection-mixing system to ascertain if there might be differences between it and the peroxynitrite generating system (SIN-1) which mimics the natural production of (OONO-). […] Upon the stimulation of inflammation and/or infection, macrophages and neutrophils can be stimulated to produce large amounts of peroxynitrite.
(§2) The antioxidant effect of green tea and some of its constituents against luminol dependent chemiluminesence activated by peroxynitrite. Since peroxynitrite oxidizes luminol to an intermediate that produces light, antioxidants will inhibit this blue light by interfering with the oxidation of the luminol. In addition, we used SIN-1 which produces both superoxide and nitric oxide which combine to produce peroxynitrite. […] The purpose of this study was to measure the antioxidant activity of green tea extract and some of its prominent polyphenols. This is accomplished by using the antioxidants to oppose the oxidation of luminol by peroxynitrite thereby inhibiting the production of blue light.
(§3) Three sydnonimine congeners are known to produce both nitric oxide and superoxide and then combine to produce peroxynitrite (ONOO). […] It was kept on ice and maintained its activity for several hours of the experiment. Peroxynitrite (approx 50 mM) was diluted 1/1000 with water. The original solution is supplied in 0.3M NaOH and this stabilizes the compound. Once diluted it must be kept on ice and used quickly, especially after dilution. When the diluted OONO- is injected into the PBS buffer at pH=7.4. […] However, the slower reaction with SIN-1 gives an opportunity to dissect the reaction into its component parts, since rapid reaction and injection/mixing are not so crucial.
(§4) The luminol was obtained from Sigma Chemical Company, St. Louis, Mo. It was dissolved first in one ml DMSO and then diluted to produce a stock solution (10^-4M) in 0.1 M Phosphate buffered saline at a pH of 7.4.
(§5) The luminometer tube was placed in a Berthold model LB9505C tube-6 channel luminometer with the temperature control set at 37°C and the light reaction was measured for 20 minutes. Peroxynitrite reacts with luminol directly and was injected using an essentially pressure-independent injection device, which injects 1/50 of it's total volume (2500 µm) of a gas tight syringe, made by the Hamilton Co. (pat. # 3161323) in Whittier, CA, to produce a blue light at 425 nm, which corresponds to the most sensitive detection range of the photomultipliers for this luminometer. The injection device was linked to a gastight 2500 microliter syringe with a fixed needle of 5.2 cm. This length of needle was necessary to penetrate the septum of the ports of the 6 channel Berthold Luminometer and to extend into the tube far enough to produce reproducible mixing necessary because of the short half-life of peroxynitrite. In Fig. 7, repetitive injections of peroxynitrite are shown giving the light generated over a one minute time period which was acquired, plotted and integrated with an IBM clone computer running KINB software. […]

[3] = Luminol dependent chemiluminescence activated by SIN-1 (peroxynitrite generator); assay type: biochemical
From the text: as §1, §2, §3, §4
Green tea powdered extract was purchased from Pharmanex, Simi Valley, California. 250mg was dissolved in 10ml of phosphate buffered saline (PBS) with pH of 7.4 and used as a stock solution. Dilutions were made using PBS and samples from this original stock solution were diluted every ten fold from one to a million (six samples).
A control solution was also used to provide a reference to the light stimulation produced by the combination of SIN-1 and luminol.
as §5, with “software. In the case of SIN-1, the ingredients were mixed prior to assay, with SIN-1 added fast. The assay is reported as counts per minute integrated over the 20 minute time period.” for “software.”

[4] = administered in large amounts (95 mg/kg); oxidized to 2,8 dihydroxyadenine; cited from earlier work
[5] = cited from earlier work
[6] = tested on: allergic encephalomyelitis (EAE); conditions: mice, 500 mg/kg four times a day, started before or after clinical symptoms of EAE; cited from earlier work
[7] = 1:1000 dilution (stock 0.45 mMolar)
[8] = 1:100 dilution from stock at 0.45 mMolar

In the case of OC[C@H]1O[C@@H](n2cnc3c(O)ncnc32)[C@H](O)[C@@H]1O [inosine], the “abilities to increase uric acid levels” value [1] is given as “equivalent”.

In the case of Nc1nc2c(ncn2[C@@H]2O[C@H](CO)[C@@H](O)[C@H]2O)c(=O)[nH]1 [guanosine], the “abilities to increase uric acid levels” value [1] is listed as “equivalent”.

With Oc1cc(O)c2c(c1)OC(c1ccc(O)c(O)c1)C(O)C2 (racemic) [racemic catechin, (±) catechin] the “inhibition of peroxynitrite-based light” value ([2]; 1:10,000 dilution) was 50%, the “inhibition of peroxynitrite-based light” value ([2]; 1:10,000 dilution, listed as Racemic catechin) was “about 50%” and the “inhibition of peroxynitrite-based light” value ([2]; 1:100,000 dilution) was 50%. The “inhibition of peroxynitrite-based luminol light” value [2] was “about 50%”, the “relative antioxidant activity among the catechins tested” value [2] was “very active” and the “inhibition of SIN-1 activated luminol light” value [3, 7] was 50%. The “inhibition of SIN-1 activated luminol light” value ([3]; 1:1000 dilution (stock 0.45 mMolar), listed as Racemic catechin) was “about 50%” and the “inhibition of SIN-1 activated luminol light” value ([3]; 10 fold dilutions after 1:1000) was “little inhibition”.

In the case of O=c1[nH]cnc2nc[nH]c12 [hypoxanthine], the “uricosuric effect / uric acid levels in the blood” value [1] is given as “raised uric acid levels in the blood” and the “effectiveness as precursor of uric acid” value ([1]; overall, of AMP, GMP and hypoxanthine) is given as “most effective precursor of uric acid”.

In the case of Nc1nc2nc[nH]c2c(=O)[nH]1 [guanine], the “uricosuric effect / uric acid levels in the blood” value [1] is listed as “ineffective”.

For O=c1[nH]c(=O)c2[nH]cnc2[nH]1 [xanthine], the “uricosuric effect / uric acid levels in the blood” value [1] is given as “ineffective”.

For Nc1ncnc2nc[nH]c12 [adenine], the toxicity [4] is listed as “can crystallize to form kidney stones” and the “uricosuric effect / uric acid levels in the blood” value [1] is listed as “raised uric acid levels in the blood”.

In the case of O=c1[nH]c(=O)c2[nH]c(=O)[nH]c2[nH]1 [uric acid], the “inhibition of the oxidative reaction of peroxynitrite and luminol (chemiluminescence)” value ([2]; uric acid 10 µM, peroxynitrite 10 µM) is listed as “about 99%”, the solubility in water [5] is listed as “highly insoluble in water” and the survival [6] is listed as “long time survival”.

For Nc1nc2c(ncn2[C@@H]2O[C@H](COP(=O)(O)O)[C@@H](O)[C@H]2O)c(=O)[nH]1 [GMP], the “uricosuric effect / uric acid levels in the blood” value [1] is given as “raised uric acid levels in the blood”, the “abilities to increase uric acid levels” value [1] is given as “equivalent” and the “increasing blood uric acid levels” value [1] is given as “more effective than DNA and RNA”.

In the case of (-) epicatechin gallate, the “inhibition of light, peroxynitrite as activator of luminol light” value ([2]; 1:10 dilution) is reported as 100%, the “inhibition of peroxynitrite-based luminol light” value [2] is reported as “about 50%” and the “inhibition of light production, peroxynitrite as activator of luminol light” value ([2]; consecutive 10 fold dilution after 1:10) is reported as “about 25%”. For the same compound, the “relative antioxidant activity among the catechins tested” value [2] was “second most active antioxidant”, the “inhibition of SIN-1 activated luminol light” value [3, 7] was “about 50%” and the “inhibition of SIN-1 activated luminol light” value ([3]; 1:1000 dilution (stock 0.45 mMolar), listed as epicatechin gallate (-)) was 60%.

With (-) epigallocatechin gallate the “effect on light from peroxynitrite” value [2, 8] was “stimulation of light”, the “pattern with peroxynitrite based light compared with SIN-1 activated light” value ([2]; full strength and 10 fold dilutions) was “same pattern of behavior” and the “relative antioxidant activity among the catechins tested” value [2] was “weakest antioxidant tested”. The “inhibition of SIN-1 activated luminol light” value ([3]; 1:10 dilution) was 100%, the “effect on light from SIN-1” value [3, 8] was “stimulation of light” and the “inhibition of SIN-1 activated luminol light” value ([3]; full strength) was 100%. For the same compound, the “effect on SIN-1 activated luminol light” value ([3]; further dilution beyond 1:10) was “stimulate production of light”.

In the case of Nc1ncnc2c1ncn2[C@@H]1O[C@H](COP(=O)(O)O)[C@@H](O)[C@H]1O [AMP], the “uricosuric effect / uric acid levels in the blood” value [1] is given as “raised uric acid levels in the blood”, the “abilities to increase uric acid levels” value [1] is given as “equivalent” and the “increasing blood uric acid levels” value [1] is given as “more effective than DNA and RNA”.
